Data reported in the supplement of paper PMC13380429.

Key:
Conditions in all cases: 72 h
HepG2 [1] = assay: relative viability EC50 (midpoint between 100% and the lowest measured viability); higher = less toxic
Calu-3 [2] = assay: as above
HepG2 [3] = assay: cell viability relative to DMSO; higher = less toxic
Caco-2 [4] = assay: as above
U2OS [5] = assay: as above
Calu-3 [6] = assay: as above
Vero E6 [7] = assay: as above
HepG2 [8] = assay: drug sensitivity score (DSS) for viability; higher = more toxic; extreme values may be limits of the assay
Caco-2 [9] = assay: as above
U2OS [10] = assay: as above
Calu-3 [11] = assay: as above
Vero E6 [12] = assay: as above
Caco-2 [13] = assay: relative viability EC50 (midpoint between 100% and the lowest measured viability); higher = less toxic
U2OS [14] = assay: as above

| SMILES | relative viability EC50 (HepG2 [1]) [µM] | relative viability EC50 (Calu-3 [2]) [µM] | cell viability (HepG2 [3]; 1 nM) [%] | cell viability (HepG2 [3]; 10 nM) [%] | cell viability (HepG2 [3]; 100 nM) [%] | cell viability (HepG2 [3]; 1000 nM) [%] | cell viability (HepG2 [3]; 10000 nM) [%] | cell viability (Caco-2 [4]; 1 nM) [%] | cell viability (Caco-2 [4]; 10 nM) [%] | cell viability (Caco-2 [4]; 100 nM) [%] | cell viability (Caco-2 [4]; 1000 nM) [%] | cell viability (Caco-2 [4]; 10000 nM) [%] | cell viability (U2OS [5]; 1 nM) [%] | cell viability (U2OS [5]; 10 nM) [%] | cell viability (U2OS [5]; 100 nM) [%] | cell viability (U2OS [5]; 1000 nM) [%] | cell viability (U2OS [5]; 10000 nM) [%] | cell viability (Calu-3 [6]; 1 nM) [%] | cell viability (Calu-3 [6]; 10 nM) [%] | cell viability (Calu-3 [6]; 100 nM) [%] | cell viability (Calu-3 [6]; 1000 nM) [%] | cell viability (Calu-3 [6]; 10000 nM) [%] | cell viability (Vero E6 [7]; 1 nM) [%] | cell viability (Vero E6 [7]; 10 nM) [%] | cell viability (Vero E6 [7]; 100 nM) [%] | cell viability (Vero E6 [7]; 1000 nM) [%] | cell viability (Vero E6 [7]; 10000 nM) [%] | drug sensitivity score (HepG2 [8]) | drug sensitivity score (Caco-2 [9]) | drug sensitivity score (U2OS [10]) | drug sensitivity score (Calu-3 [11]) | drug sensitivity score (Vero E6 [12]) | relative viability EC50 (Caco-2 [13]) [µM] | relative viability EC50 (U2OS [14]) [µM] |
| --- | --- | --- | --- | --- | --- | --- | --- | --- | --- | --- | --- | --- | --- | --- | --- | --- | --- | --- | --- | --- | --- | --- | --- | --- | --- | --- | --- | --- | --- | --- | --- | --- | --- | --- |
| Cc1cc(N2CCOCC2)ccc1Nc1nc(NC2CCCCC2)c2nc[nH]c2n1 | 0.455 | > 10 | 99.1 | 107 | 98 | 51.8 | 43.5 | 102 | 104 | 101 | 88.5 | 69.4 | 97 | 104 | 101 | 68 | 55.4 | 100 | 98 | 98.6 | 98.4 | 85 | 96.9 | 99.6 | 98.2 | 60.1 | 60.8 | 9.1 | 2.9 | 6.1 | 0.4 | 7.4 |  |  |
| Cc1cccc(NC(=O)CN2CCC(c3ccccn3)CC2)c1 | > 10 | > 10 | 108 | 103 | 97 | 102 | 101 | 98.7 | 101 | 95 | 91.3 | 93.9 | 98.9 | 97.9 | 94.7 | 98.1 | 93.9 | 110 | 101 | 109 | 108 | 98.1 |  |  |  |  |  | 0 | 0 | 0 | 0 |  | > 10 | > 10 |
| Cn1cc(-c2ccncc2)c(-c2ccc(OCc3ccc4ccccc4n3)cc2)n1 | > 10 | > 10 | 105 | 99.2 | 108 | 95.6 | 91.5 | 91.1 | 106 | 90.5 | 106 | 67.2 | 94 | 101 | 96.7 | 94.6 | 87.5 | 104 | 105 | 103 | 98.9 | 77.1 |  |  |  |  |  | 0 | 1.2 | 0 | 0.9 |  |  | > 10 |
| NC(=O)[C@@H](CC1CC1)[C@@H](CCC(F)(F)F)C(=O)N[C@H]1N=C(c2ccccc2)c2cccc(F)c2NC1=O | > 10 | > 10 | 94.3 | 106 | 105 | 91.9 | 106 | 97.7 | 98.4 | 96.5 | 96.2 | 85.2 | 99 | 96.4 | 94.1 | 94.1 | 92.7 | 110 | 99.4 | 91.9 | 85.8 | 99.1 |  |  |  |  |  | 0 | 0.4 | 0 | 0 |  | > 10 | > 10 |
| N#C/C(=C\c1ccc(O)c(O)c1)C(=O)NCCCCc1ccccc1 [AG-556] |  | > 10 | 93.3 | 101 | 97.8 | 108 | 71.1 | 94 | 94.2 | 101 | 101 | 50.1 | 98.5 | 99 | 94.7 | 99 | 75.8 | 95.7 | 101 | 102 | 110 | 98.7 | 95.8 | 95.6 | 100 | 95.9 | 62.5 | 0.9 | 2.5 | 1 | 0 | 2.5 |  | > 10 |
| CC(C)(C)C1CCc2c(sc(NC(=O)c3ccco3)c2C(=O)O)C1 (stereo not given) [CaCCinh-A01] |  | > 10 | 115 | 90.8 | 103 | 87.2 | 69.3 | 102 | 103 | 97.1 | 97.8 | 82.2 | 98.8 | 101 | 96.2 | 97.1 | 98 | 91.2 | 99.5 | 103 | 96.4 | 99.6 | 98.8 | 98.8 | 106 | 98.5 | 72.9 | 3 | 0.7 | 0 | 0 | 1.3 | > 10 | > 10 |
| CC(C)(O)c1coc(S(=O)(=O)NC(=O)Nc2c3c(cc4c2CCC4)CCC3)c1 [MCC950] | > 10 | > 10 | 97.9 | 95.9 | 102 | 113 | 105 | 106 | 96.1 | 102 | 96.9 | 104 | 104 | 103 | 105 | 97.7 | 102 | 120 | 105 | 100 | 103 | 99.3 |  |  |  |  |  | 0 | 0 | 0 | 0 |  | > 10 | > 10 |
| Nc1ncnc2c1c(-c1cccc(OCc3ccccc3)c1)cn2[C@H]1C[C@@H](CN2CCC2)C1 [NVP-AEW541] | 1 |  | 96.4 | 93.6 | 92.4 | 68.1 | 32.3 | 99.8 | 97 | 94.5 | 80.8 | 45.1 | 98.1 | 97.9 | 106 | 86.6 | 52.5 | 112 | 103 | 99.4 | 93.3 | 57.2 | 100 | 102 | 99 | 92.9 | 69.6 | 7.4 | 5.2 | 4.5 | 3.3 | 2.4 | 1.4 |  |
| CC(C)(C(=O)NCC(F)(F)C(F)(F)F)C(=O)N[C@@H]1C(=O)Nc2ccccc2-c2ccccc21 [RG4733] | > 10 | > 10 | 102 | 111 | 101 | 102 | 92.1 | 94.4 | 92.3 | 97.8 | 89.8 | 82.2 | 96.9 | 99.1 | 99.6 | 94.4 | 97.3 | 102 | 108 | 112 | 98.6 | 93.9 |  |  |  |  |  | 0 | 0.6 | 0 | 0 |  | > 10 | > 10 |
| COc1ccncc1C(=O)NC(=O)Nc1ccc(-c2ccccc2)c(C(F)(F)F)c1 [S1P1-agonist-III] | > 10 | > 10 | 95.3 | 104 | 95.5 | 107 | 97.1 | 100 | 90.6 | 95.5 | 99.1 | 87.8 | 106 | 107 | 101 | 98.4 | 98.2 | 110 | 97.5 | 93.2 | 99.2 | 91.1 |  |  |  |  |  | 0 | 0 | 0 | 0 |  | > 10 | > 10 |
| O=C(NCC(=O)N1CCCC1)Nc1ccc2cnccc2c1 [SGC-707] | > 10 | > 10 | 93.6 | 117 | 98.4 | 103 | 97.3 | 98.1 | 97 | 95.7 | 100 | 93.1 | 99.2 | 93 | 103 | 97.3 | 96.8 | 94.2 | 95.8 | 105 | 86.2 | 110 |  |  |  |  |  | 0 | 0 | 0 | 0 |  | > 10 | > 10 |
| O=C(O)COc1ccc(/C=C2\SC(=O)NC2=O)cc1 [TCS-3035] | > 10 | > 10 | 103 | 104 | 103 | 105 | 95.3 | 105 | 107 | 97.3 | 104 | 102 | 102 | 94.9 | 97.8 | 99.8 | 100 | 101 | 97.6 | 97.3 | 103 | 106 |  |  |  |  |  | 0 | 0 | 0 | 0 |  | > 10 | > 10 |
| NS(=O)(=O)c1ccc(NC(=O)Nc2ccc(F)cc2)cc1 [U-104] | > 10 | > 10 | 102 | 106 | 103 | 89.8 | 104 | 99.4 | 94.4 | 96.9 | 105 | 101 |  |  |  |  |  | 112 | 91.7 | 107 | 101 | 108 |  |  |  |  |  | 0 | 0 |  | 0 |  | > 10 |  |
| CC(=O)N[C@@H](CC(C)C)C(=O)O [acetyl-l-leucine] | > 10 |  | 95.8 | 99.2 | 98.4 | 88.3 | 94.7 | 95.7 | 103 | 85 | 80.3 | 96.6 | 101 | 99.9 | 95.2 | 101 | 96.2 |  |  |  |  |  |  |  |  |  |  | 0 | 4.1 | 0 |  |  | > 10 | > 10 |
| CN(C)CCN1C(=O)c2cccc3cc(N)cc(c23)C1=O [amonafide] | 2.48 |  | 92.9 | 108 | 113 | 93.6 | 23.9 | 99.9 | 96.1 | 97.9 | 108 | 69.7 | 101 | 92.7 | 95 | 100 | 64.6 | 94.8 | 96.2 | 99.3 | 104 | 65.1 | 97.8 | 93.3 | 95.9 | 94.1 | 54.8 | 5.2 | 1 | 1.7 | 1.4 | 3.3 |  |  |
